Reference: PubChem BioAssay (NCI)
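How tested: cells in 96-well plates exposed to compound for 48 hours at five concentrations. GI50 = concentration required for 50% inhibition of growth. TGI denotes the concentration required for complete inhibition of growth.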

How the values were obtained:
Assay in all cases: DTP human tumour cell line panel, 48 h
UACC-257 melanoma = system: UACC-257 melanoma
HCT-116 colon = system: HCT-116 colon
OVCAR-3 ovarian = system: OVCAR-3 ovarian
OVCAR-4 ovarian = system: OVCAR-4 ovarian
SN12C renal = system: SN12C renal
SNB-19 CNS = system: SNB-19 CNS
A498 renal = system: A498 renal
NCI-H23 lung = system: NCI-H23 lung
SF-295 CNS = system: SF-295 CNS
M14 melanoma = system: M14 melanoma
SR leukemia = system: SR leukemia
SW-620 colon = system: SW-620 colon
SF-539 CNS = system: SF-539 CNS
NCI-H460 lung = system: NCI-H460 lung
HOP-62 NSCLC = system: HOP-62 NSCLC
MOLT-4 leukemia = system: MOLT-4 leukemia
MALME-3M melanoma = system: MALME-3M melanoma
COLO 205 colon = system: COLO 205 colon
HL-60(TB) leukemia = system: HL-60(TB) leukemia
T-47D breast = system: T-47D breast
ACHN renal = system: ACHN renal
786-0 renal = system: 786-0 renal
RXF 393 renal = system: RXF 393 renal
UO-31 renal = system: UO-31 renal
SK-OV-3 ovarian = system: SK-OV-3 ovarian
CCRF-CEM leukemia = system: CCRF-CEM leukemia
BT-549 breast = system: BT-549 breast

In the case of `O=C(Nc1cc(Cl)ccc1O)c1cccc(NC2=C(Cl)C(=O)N(Cc3ccccc3)C2=O)c1`, the GI50 (UACC-257 melanoma) was 23.8 µM, the TGI (UACC-257 melanoma) was 68.2 µM and the GI50 (HCT-116 colon) was 17.2 µM. For the same compound, the TGI (HCT-116 colon) was 31 µM, the GI50 (OVCAR-3 ovarian) was 23.4 µM and the TGI (OVCAR-3 ovarian) was 54.4 µM. It also gave a GI50 (OVCAR-4 ovarian) of 55.5 µM, a TGI (OVCAR-4 ovarian) of over 100 µM and a GI50 (SN12C renal) of 16 µM. It also gave a TGI (SN12C renal) of 33.6 µM, a GI50 (SNB-19 CNS) of 48.4 µM and a TGI (SNB-19 CNS) of over 100 µM. For the same compound, the GI50 (A498 renal) was 25.8 µM, the TGI (A498 renal) was over 100 µM and the GI50 (NCI-H23 lung) was 16.1 µM. For the same compound, the TGI (NCI-H23 lung) was 33.6 µM, the GI50 (SF-295 CNS) was 20.5 µM and the TGI (SF-295 CNS) was 47.6 µM. For the same compound, the GI50 (M14 melanoma) was 17.8 µM, the TGI (M14 melanoma) was 36.7 µM and the GI50 (SR leukemia) was 4.8 µM. The TGI (SR leukemia) was 22.8 µM, the GI50 (SW-620 colon) was 21.3 µM and the TGI (SW-620 colon) was 49.9 µM. The GI50 (SF-539 CNS) was 27.2 µM, the TGI (SF-539 CNS) was 58.9 µM and the GI50 (NCI-H460 lung) was 18.6 µM. It also gave a TGI (NCI-H460 lung) of 40.9 µM, a GI50 (HOP-62 NSCLC) of 26.7 µM and a TGI (HOP-62 NSCLC) of 67.3 µM. The GI50 (MOLT-4 leukemia) was 3.24 µM, the TGI (MOLT-4 leukemia) was 15.8 µM and the GI50 (MALME-3M melanoma) was 30.5 µM. For the same compound, the TGI (MALME-3M melanoma) was 86.4 µM, the GI50 (COLO 205 colon) was 30.9 µM and the TGI (COLO 205 colon) was over 100 µM. For the same compound, the GI50 (HL-60(TB) leukemia) was 15.9 µM, the TGI (HL-60(TB) leukemia) was 38.7 µM and the GI50 (T-47D breast) was 29 µM. It also gave a TGI (T-47D breast) of over 100 µM, a GI50 (ACHN renal) of 35.6 µM and a TGI (ACHN renal) of over 100 µM. It also gave a GI50 (786-0 renal) of 22.7 µM, a TGI (786-0 renal) of 50.9 µM and a GI50 (RXF 393 renal) of 17.4 µM. For the same compound, the TGI (RXF 393 renal) was 45.1 µM, the GI50 (UO-31 renal) was 38.3 µM and the TGI (UO-31 renal) was over 100 µM. The GI50 (SK-OV-3 ovarian) was 69.1 µM, the TGI (SK-OV-3 ovarian) was over 100 µM and the GI50 (CCRF-CEM leukemia) was 2.14 µM. For the same compound, the TGI (CCRF-CEM leukemia) was 11.5 µM, the GI50 (BT-549 breast) was 26.7 µM and the TGI (BT-549 breast) was 80.5 µM.
